For one compound, EC50 and IC50 results are on record in ChEMBL document CHEMBL1130848, “Synthesis and preliminary evaluation of (S)-2-(4'-carboxycubyl)glycine, a new selective mGluR1 antagonist” (Bioorg Med Chem Lett, 1998).

Structures are written as SMILES.

The target in test [1] is Metabotropic glutamate receptor 2 (Homo sapiens, UniProt Q14416). Nature of the test: Concentration required to inhibit mGluR2 receptor.
For test [2], the target named is Metabotropic glutamate receptor 1 (Homo sapiens, UniProt Q13255). The test can be described thus: Inhibitory activity against mGluR1 receptor.
Sequence of Metabotropic glutamate receptor 1 (Q13255 whole entry): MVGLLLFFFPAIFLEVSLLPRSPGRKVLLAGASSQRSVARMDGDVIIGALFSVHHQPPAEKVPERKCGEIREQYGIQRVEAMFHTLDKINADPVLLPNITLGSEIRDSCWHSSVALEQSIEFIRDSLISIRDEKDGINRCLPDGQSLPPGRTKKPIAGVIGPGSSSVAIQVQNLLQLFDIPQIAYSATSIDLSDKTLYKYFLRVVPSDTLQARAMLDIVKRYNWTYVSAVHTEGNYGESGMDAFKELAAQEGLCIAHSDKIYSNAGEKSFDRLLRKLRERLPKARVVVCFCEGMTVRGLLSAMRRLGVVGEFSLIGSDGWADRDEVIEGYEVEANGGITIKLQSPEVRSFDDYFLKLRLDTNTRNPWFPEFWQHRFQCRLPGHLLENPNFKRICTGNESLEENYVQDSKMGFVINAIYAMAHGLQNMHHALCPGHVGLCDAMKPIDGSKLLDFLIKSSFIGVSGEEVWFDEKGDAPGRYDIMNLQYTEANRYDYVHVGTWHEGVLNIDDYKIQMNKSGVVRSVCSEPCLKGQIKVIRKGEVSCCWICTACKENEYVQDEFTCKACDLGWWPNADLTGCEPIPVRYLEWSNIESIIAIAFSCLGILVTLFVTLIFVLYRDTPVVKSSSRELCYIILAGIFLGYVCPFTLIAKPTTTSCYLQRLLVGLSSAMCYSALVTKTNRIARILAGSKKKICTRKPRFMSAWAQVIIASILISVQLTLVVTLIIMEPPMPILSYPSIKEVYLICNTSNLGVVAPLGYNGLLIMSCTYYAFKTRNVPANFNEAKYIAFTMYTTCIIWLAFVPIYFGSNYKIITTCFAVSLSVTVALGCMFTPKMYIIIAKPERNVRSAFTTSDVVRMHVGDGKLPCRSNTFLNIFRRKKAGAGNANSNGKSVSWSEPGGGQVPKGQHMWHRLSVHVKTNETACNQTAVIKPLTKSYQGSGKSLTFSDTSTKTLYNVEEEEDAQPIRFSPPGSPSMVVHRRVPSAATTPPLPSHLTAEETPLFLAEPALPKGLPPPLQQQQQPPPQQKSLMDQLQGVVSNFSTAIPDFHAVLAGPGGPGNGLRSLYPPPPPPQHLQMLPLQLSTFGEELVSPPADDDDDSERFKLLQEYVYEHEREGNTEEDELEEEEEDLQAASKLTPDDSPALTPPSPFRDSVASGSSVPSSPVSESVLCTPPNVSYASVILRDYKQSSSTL

Sequence of Metabotropic glutamate receptor 2 (Q14416 whole entry): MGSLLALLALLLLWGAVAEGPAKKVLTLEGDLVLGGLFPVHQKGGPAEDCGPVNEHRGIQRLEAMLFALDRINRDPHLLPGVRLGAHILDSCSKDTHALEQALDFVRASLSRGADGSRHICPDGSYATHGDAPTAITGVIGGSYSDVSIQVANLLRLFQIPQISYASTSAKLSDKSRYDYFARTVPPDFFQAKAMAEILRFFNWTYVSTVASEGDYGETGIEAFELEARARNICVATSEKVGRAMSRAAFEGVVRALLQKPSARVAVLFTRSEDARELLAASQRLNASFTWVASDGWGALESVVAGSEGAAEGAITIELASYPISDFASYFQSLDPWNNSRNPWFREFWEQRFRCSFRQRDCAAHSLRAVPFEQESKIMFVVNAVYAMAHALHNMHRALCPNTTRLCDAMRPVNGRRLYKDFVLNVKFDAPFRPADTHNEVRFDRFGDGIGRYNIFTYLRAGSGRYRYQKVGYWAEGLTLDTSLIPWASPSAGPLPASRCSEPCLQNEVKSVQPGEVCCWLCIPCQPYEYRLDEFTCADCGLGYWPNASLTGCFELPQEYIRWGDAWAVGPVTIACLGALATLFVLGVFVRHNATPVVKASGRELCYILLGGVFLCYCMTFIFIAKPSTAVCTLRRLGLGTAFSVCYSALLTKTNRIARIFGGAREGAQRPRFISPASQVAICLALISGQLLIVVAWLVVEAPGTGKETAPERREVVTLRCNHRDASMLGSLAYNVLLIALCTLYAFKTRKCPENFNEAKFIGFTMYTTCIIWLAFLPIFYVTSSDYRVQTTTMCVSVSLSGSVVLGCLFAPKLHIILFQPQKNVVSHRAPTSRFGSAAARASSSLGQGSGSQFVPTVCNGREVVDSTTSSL

What is called EC50 is the midpoint of the concentration-response curve. A low value points to an effect from little substance. Broadly, the IC50 is the concentration at which inhibition is half-maximal. A higher IC50 goes with weaker potency in that assay. Turning to `N[C@H](C(=O)O)C12C3C4C1C1C2C3C41C(=O)O` (some centres not stated), a half-maximal response in test [1] (EC50) required 54.9 µM. Besides, in test [2], the IC50 worked out at 232 µM.
